# Data taken from US12433864B2, “5,6-diHETE lactone for treatment of microvascular dysfunction” (MIGAL GALILEE RESEARCH INSTITUTE LTD., priority 2019, dated 2025).
# Columns and labels:
# HUVEC = assay: Calcium imaging, intracellular [Ca2+]i increase in HUVEC; format: cell-based, human; conditions: for changes in cellular [Ca2+]i: 2 μmol/L
# Experimental: HUVECs were plated onto 24-well plates and grown to 70% confluence. To monitor cytosolic Ca^2+ signals, cells were loaded with fluo-3 AM (4 μmol/L; Molecular Probes) and incubated for 40 min at 37° C. in complete medium that contained […] pluronic acid. After washing twice with HEPES buffer that contained (in mmol/L) 1.25 CaCl2, 5.5 D-glucose, 10 HEPES, 5 KCl, 0.5 MgCl2, and 140 NaCl (brought to pH 7.4 with NaOH); the plates were incubated at 37° C. for 15 additional minutes prior to fluorescence imaging. Fluorescence images were acquired every 1 s over the course of 5 min in cells treated with 4α-phorbol-12, 13-didecanoate (4α-PDD; a specific TRPV4 agonist; 10 μmol/L), 5,6-diHETE ((±)5,6-dihydroxy-8Z,11Z,14Z,17Z-eicosatetraenoic acid) 1, 5 lactone (0.01-5 μmol/L) and 5,6-diHETE (hydrolytic isomer of 5,6-EEQ; 2 and 5 μmol/L). The calculated ratio between maximal intensity (F1) and basal intensity (F0) was determine for each experiment and presented as Average±SD.
# To investigate the effect of 5,6-diHETE ((±)5,6-dihydroxy-8Z,11Z,14Z,17Z-eicosatetraenoic acid) lactone on cytosolic [Ca^2+]i (FIG. 1), HUVECs were exposed to graded doses of 5,6-diHETE lactone (0.01-5 μmol/L) in ethanol/HEPES buffer, and the intracellular changes in [Ca^2+] were determined by the mean of fluoresces intensity. […] No significant differences in cytosolic [Ca^2+]i levels were detected beyond 0.5 μM lactone. Above this concentration the cytosolic [Ca^2+]i levels reach saturation.
# These rapid pathways result in the reduction of epoxide concentrations, and thus, in a decrease in their activity. We therefore tested the ability of the hydrolyzed form compared to the unhydrolyzed form to increase intracellular calcium (FIG. 2).
# [1] = system: mouse mesenteric resistance arteries; assay: Vascular reactivity in mouse mesenteric resistance arteries (wire myograph); conditions: 10^−5 mol/L, pre-constricted with U-46619 0.1 μmol/L, n=11
# Experimental: On the day preceding the experiment, adult male mice (age 3-6 months) were decapitated and mesenteric tissue was dissected and placed on an agar plate with ice-cold HEPES-physiological saline solution (PSS) containing: 123 mM NaCl, 4.7 mM KCl, 2.5 mM CaCl2*2H2O, 1.2 mM MgSO4*7H2O, 20 mM NaHCO3, 1.2 mM KH2PO4, 26 μM EDTA, 11 mM glucose and 2.38 mg/ml HEPES Fat and connective tissue were carefully removed, arterioles (150-200 μm diameter) were cut into 3 mm segments and stored overnight at 4° C. The vessels were then mounted carefully on two tungsten wires (0.025 mm diameter) with care not to damage the endothelium, and mounted on a four-chamber wire myograph (DMT, Denmark, Model 620 M). Arteries were then equilibrated at 37° C. for 30 min in the myograph chamber filled with PSS and constantly bubbled with gas containing 21% O2, 74% N2, and 5% CO2 and set at 1 mN resting tension obtained in the LabChart Pro software (AD instruments, Oxfordshire, UK). […] After contraction reached steady state, cumulative concentrations of 5,6-diHETE lactone were added (1 μM to 10 μM) in DMSO (up to 0.16%) and the % relaxation responses were determined relative to the relaxation response to 100 μM papaverine.
# To evaluate the vasodilation mediated by 5,6-diHETE lactone, mesenteric arteries from C57BL were extracted and monitored for their dilation in a wire myograph chamber under physiological conditions. […]
# [2] = system: Human adipose arterioles (HAAs); assay: Dilation of human adipose arterioles (HAAs), cannulated, video diameter measurement; conditions: for max dilation: 10^−7 mol/L, pre-constricted with endothelin-1
# Experimental: Human adipose arterioles (HAAs) were extracted from adipose tissues obtained from subjects without coronary artery disease (7 normotensives and 7 hypertensives). The HAAs (100-200 μm in diameter) were cannulated with 2 glass micropipettes in an organ chamber, and the internal diameter of arterioles was measured with a video system. Arterioles were pre-constricted with endothelin-1 (10-50 nmol/L) to reduce the passive diameter by 30-50%. Relaxation was measured in response to the increasing concentrations of 5,6-diHETE lactone (10^−4-10^−1 μmol/L). To examine the involvement of NO in the 5,6-diHETE lactone-induced dilation, relaxation responses were determined in the presence or absence of nitric oxide synthase (NOS) antagonist (100 μmol/L N[omega]-nitro-Larginine methyl ester [L-NAME]).
# Endothelial cell denudation was achieved by perfusion of the vessels with pre-warmed air as previously described (H. Miura, Circ. Res. 92 (2003)). At the end of each experiment, papaverine (100 μmol/L), an endothelium-independent vasodilator, was added to determine the maximal dilation for normalization of dilator responses. Vasodilator responses are expressed as the percentage of maximal dilation, with 100% representing complete relaxation (maximal diameter).
# [3] = molecular target: T1, KCa3.1 (IK) calcium-activated potassium channel (human KCNN4 gene) expressed in CHO cells (Homo sapiens, UniProt O15554); assay: Thallium flux assay, agonist effect on IK channel; format: cell-based; conditions: for Normalized % Activation: IK
# T1 construct: expressed in transfected cells
# Experimental: (§1) Potassium channels genes were expressed in HEK293 or CHO cells (see Table 1). SspI or PvuI enzymes were used to linearize pcDNA3.1 plasmid (Thermo Fisher). The plasmid was stably transfected by Lonza Nucleofector. The transfection efficiency was >80% as validated by expression (western blot) and activation (patch clamp and membrane potential detection) of the channels.
# (§2) Functional activity of voltage-gated potassium channels was conducted using a potassium dye (Thallium flux assay, Molecular Devices) using a Fluorescence Imaging Plate Reader (FLIPRTETRA™) instrument, according to the manufacturer's instructions. Cells were plated in 384-well black wall, flat clear bottom microtiter plates (BD Biocoat Poly-D Lysine Multiwell Cell Culture Plate) at 15,000 to 30,000 cells per well. Cells were incubated at 37° C. overnight or until cells reach sufficient density in the wells (near confluent monolayer) to use in fluorescence assays. A typical sequence is to record a baseline during the pre-incubation period (first addition of test article before stimulation), followed by activation in the stimulus buffer. For each addition, the first 60 seconds of data are acquired at the maximum rate (1 sample/second) and for the remaining 9-19 minutes (depending on the recording time of each addition); data are sampled every 5 seconds.
# (§3) Accordingly, the objective of this study was to evaluate the agonist effects in vitro of the 5,6-diHETE lactone on two cloned human channels stably expressed in HEK-293 or CHO cells. The assay was performed with a thallium flux assay (FLIPR® Potassium Assay, Molecular Devices) according to the manufacturer's instructions. Briefly, cells were plated in 384-well black wall, flat clear bottom microtiter plates (BD Biocoat Poly-D-Lysine Multiwell Cell Culture Plate) at 15,000 to 30,000 cells per well. Cells were incubated at 37° C. overnight or until cells reach sufficient density in the wells (near confluent monolayer) to use in fluorescence assays. Dye-loading: Growth medium was removed and replaced with dye-loading buffer for 60 minutes at room temperature (protected from light). Agonist Effect: 5 repetitions of (5 μL) test, and vehicle or control solutions (assay buffer=0.3% DMSO) in K^+-free buffer with 5 mM Tl^+ was added to each well for ˜5 minutes. The test was 5,6-diHETE lactone (at eight concentrations: 0.05, 0.15, 0.3, 0.65, 1.25, 2.5, 5, and 10 μM, n=4). The agonist effects of the test article on the potassium channels was evaluated during this period by using a Fluorescence Imaging Plate Reader (FLIPRTETRA™) instrument.
# (§4) To calculate the effect, the signal elicited in the presence of a known agonist, (1 μM A-23187 for SK3 and 10 μM NS309 for IK) with 5 mM thallium was set to 100% activation and the signal in the presence of the vehicle control (assay buffer+0.3% DMSO) was set to 0% activation. EC50 was calculated using GraphPad prism 5 software using nonlinear regression fit formula assuming a simple binding model.
# [4] = molecular target: T2, KCa2.3 (SK3) calcium-activated potassium channel (human KCNN3 gene) expressed in HEK293 cells (Homo sapiens, UniProt Q9UGI6); assay: Thallium flux assay, agonist effect on SK3 channel; format: cell-based
# T2 construct: expressed in transfected cells
# Experimental: as §1, §2, §3, §4
# rat mesenteric arteries = assay: Relaxation of rat mesenteric arteries from NT and 5/6Nx rats (wire myograph)
# [5] = system: Sprague-Dawley 5/6Nx rats; assay: Direct blood pressure measurement in 5/6Nx rats after acute injection; format: in vivo, rat
# Experimental: Direct blood pressure measurements—For direct blood pressure (BP) evaluation, Sprague-Dawley 5/6Nx rats were deeply anesthetized by an injection of 87 mg/kg ketamine and 13 mg/kg xylazine (intramuscular) mixture. Next, the rats were instrumented with a venous line and an arterial line. Specifically, using 26G i.v. cannula (BD Neoflon, Helsinborg, Sweden) we punctured one of the tail veins, and installed the cannula. Next, 1 ml of saline heparin (500 IU/ml) mixture was administered to avoid blood clotting. Concomitantly, we installed the arterial line, after a neck incision we bluntly exposed the right carotid and ligated it distally. Then the artery was clamped proximally and incised between the ligation and the clamp. A 100 PE tube was advanced into the artery and tightened in it by second ligature aimed to avoid blood leakage, and then we removed the arterial clamp. The external tube was attached to a Luer stopcock valve, through which saline could be injected, blood withdrawn and to be connected to a pressure transducer.
# Upon connecting and stabilization, signals were continuously sampled at a sampling rate of 200 samples/sec by the MPVS-300 system, recorded.
# Basal BP was recorded for 10 min, after which time 0.5 ml 5,6-diHETE lactone (0.3 mg/kg and 3 mg/kg) dissolved in saline+DMSO (9:1) were injected through the venous line, and BP was recorded for additional 10 min after injection. For control, two distinct, known BP lowering agents were used consecutively, labetalol (10 mg/kg) a known a and p adrenergic inhibitor, and amlodipine (1.5 mg/kg) a calcium channel blocker (each by 0.5 ml venous injection). BP was recorded for additional 10 min after each injection. Specifically, after lactone effect recording labetalol was administered and 10 min later the amlodipine. We terminated the experiment by venous administration of 1M KCl overdose, until the heart stopped.
smiles,measurement,setting,value
"CCC=CCC=CCC=CCC=CCC(O)C1CCCC(=O)O1 (racemic) [5,6-diHETE lactone, 5,6 dihydroxyeicosatetraenoic acid (5,6-diHETE) lactone]",concentration beyond which cytosolic [Ca2+]i levels show no significant differences (saturation),HUVEC,0.5 µM
same,lowest concentration causing a significant [Ca2+] increase,HUVEC,0.01 µmol/L
same,changes in cellular [Ca2+]i,HUVEC,induced
same,EC50,"HUVEC; Homo sapiens, Fluo4 fluorescence, 0.01-5 μmol/L, read-out: EC50 of [Ca2+]i increase (F1max/F0)",9.94 nM
same,% dilation (relative to 100 μM papaverine),[1],29.4±3.1%
same,max dilation,[2]; hypertensive subjects,40.9%
same,effect of L-NAME on the dilation,"[2]; hypertensive subjects, L-NAME 100 μmol/L",no effect
same,effect of mechanical denudation of the endothelial layer on induced dilation,[2]; normotensive (healthy) arterioles,significantly reduced
same,max dilation,[2]; normotensive subjects,58.6%
same,reduction of the dilation effect by L-NAME,"[2]; normotensive subjects, L-NAME 100 μmol/L",50%
same,EC50,"[3]; CHO cells, 100% = 10 μM NS309, read-out: EC50, IK channel activation",2650 nM
same,Normalized % Activation,[3]; 0.05 μM,−0.13%
same,Normalized % Activation,[3]; 0.15 μM,−0.03%
same,Normalized % Activation,[3]; 0.3 μM,0.2%
same,Normalized % Activation,[3]; 0.65 μM,1.03%
same,Normalized % Activation,[3]; 1.25 μM,6.06%
same,Normalized % Activation,[3]; 2.5 μM,44.2%
same,Normalized % Activation,[3]; 5 μM,90%
same,Normalized % Activation,[3]; 10 μM,98.19%
same,EC50,"[4]; HEK293 cells, 100% = 1 μM A-23187, read-out: EC50, SK3 channel activation",9990 nM
same,Normalized % Activation,"[4]; SK3, 0.05 μM",0.12%
same,Normalized % Activation,"[4]; SK3, 0.15 μM",0.35%
same,Normalized % Activation,"[4]; SK3, 0.3 μM",0.95%
same,Normalized % Activation,"[4]; SK3, 0.65 μM",3.25%
same,Normalized % Activation,"[4]; SK3, 1.25 μM",10.16%
same,Normalized % Activation,"[4]; SK3, 2.5 μM",25.36%
same,Normalized % Activation,"[4]; SK3, 5 μM",43.17%
same,Normalized % Activation,"[4]; SK3, 10 μM",73.65%
same,% relaxation (relative to papaverine),"rat mesenteric arteries; 5/6Nx vessels, 10^−6M, n=11",73.3±20.2%
same,% relaxation (relative to papaverine),"rat mesenteric arteries; NT vessels, 10^−6M, n=11",58.6±25.0%
same,effect of pre-treatment with TRAM-34 and apamin on induced relaxation,"rat mesenteric arteries; lactone 1 μmol/L, TRAM-34 1 μmol/L and apamin 1 μmol/L, p<0.01",significantly attenuated
same,percent reduction of SBP from baseline,[5]; 0.3 mg/kg i.v.,about 20%
same,systolic blood pressure (SBP) upon injection,"[5]; 0.3 mg/kg i.v., baseline 188.0±5.5 mmHg, 3 rats",162.5±12.3 mmHg
"CC/C=C\C/C=C\C/C=C\C/C=C\CC(O)C(O)CCCC(=O)O (racemic) [5,6-diHETE, (±)5,6-dihydroxy-8Z,11Z,14Z,17Z-eicosatetraenoic acid]",lowest concentration causing a significant [Ca2+] increase,HUVEC,5 µmol/L
same,changes in cellular [Ca2+]i,HUVEC,not
"CC(=O)OCC[N+](C)(C)C [Acetylcholine, acetylcholine, reference compound]",% relaxation (relative to papaverine),"rat mesenteric arteries; 5/6Nx vessels, acetylcholine concentration response, n=7-13",63.2±15.6%
same,% relaxation (relative to papaverine),"rat mesenteric arteries; NT vessels, acetylcholine concentration response, n=7-13",94.8±5.5%
"CC(CCc1ccccc1)NCC(O)c1ccc(O)c(C(N)=O)c1 (centres unmarked) [labetalol, reference compound]",percent reduction of SBP from baseline,"[5]; 10 mg/kg i.v., given after the lactone",about 20%
